Data on 6 molecules can be found in patent US11582970B2, “2-aminoimidazole-phenyl derivatives useful for controlling microbial growth” (NORTH CAROLINA STATE UNIVERSITY, priority 2017, dated 2023).

Experiment in all cases: MIC of meropenem in combination with compound, CDC carbapenem resistant strain
Holding throughout (type): cell-based

One test relates to A. baumannii (Ab) AR# 37. On the procedure:
(§1) EXAMPLE 2: Six compounds were assessed for their activity in combination with meropenem against carbapenem resistant strains of A. baumannii (Ab), K. pneumoniae (Kp), and E. coli acquired from the Center for Disease Control (CDC). AR #—assigned AR-BANK number from the CDC.

The test system of another test is A. baumannii (Ab) AR# 35. On the procedure:
as §1

The test system of another test is A. baumannii (Ab) AR# 33. The method, then: as §1
The next test has as its system A. baumannii (Ab) AR# 83. The method, then: as §1
Another test has as its system E. coli AR# 55. On the procedure: as §1
The test system of test [1] is K. pneumoniae (Kp) AR# 40. On the procedure: as §1
The next test deals with A. baumannii (Ab) AR# 70. The method, then: as §1
For test [2], the system named is K. pneumoniae (Kp) AR# 98. The method, then: as §1
A further test concerns A. baumannii (Ab) AR# 63. On the procedure:
as §1

A further test deals with A. baumannii (Ab) AR# 45. The method, then:
as §1

The test system of another test is A. baumannii (Ab) AR# 88. The method, then: as §1
The subject of a further test is A. baumannii (Ab) AR# 56. The method, then:
as §1

For test [3], the system named is K. pneumoniae (Kp) AR# 68. On the procedure:
as §1

A further test concerns A. baumannii (Ab) AR# 36. On the procedure:
as §1

The subject of test [4] is K. pneumoniae (Kp) AR# 41. On the procedure: as §1
A further test has as its system E. coli AR# 48. The method, then:
as §1

The subject of another test is A. baumannii (Ab) AR# 52. The method, then: as §1
Where [5] appears, read: 15 μM of 2-amino imidazole compound.
Setting [6] is: 64 μM of 2-amino imidazole compound.
[7] abbreviates: 7 μM of 2-amino imidazole compound.
Where [8] appears, read: 30 μM of 2-amino imidazole compound.
Setting [9] is: 32 μM of 2-amino imidazole compound.
[10] abbreviates: 2 μM of 2-amino imidazole compound.
[11] abbreviates: 4 μM of 2-amino imidazole compound.
Setting [12] is: 60 μM of 2-amino imidazole compound.
Where [13] appears, read: 16 μM of 2-amino imidazole compound.
The mark [14] stands for this setting: 8 μM of 2-amino imidazole compound.

On to `CCCc1ccc(NC(=O)Nc2cccc(-c3cnc(N)[nH]3)c2)cc1` [Compound 2, 1-(3-(2-amino-1H-imidazol-5-yl)phenyl)-3-(4-propylphenyl)urea], for which the “Minimum Inhibitory Concentration of Meropenem” value in the test on A. baumannii (Ab) AR# 37 (setting [5]) is 64 (15) μg/mL; in the test with A. baumannii (Ab) AR# 35 (setting [5]) it was 16 (15) μg/mL; in the test with A. baumannii (Ab) AR# 33 (setting [5]), 32 (15) μg/mL; with A. baumannii (Ab) AR# 83 (setting [5]) it was 96 (15) μg/mL; in the test with E. coli AR# 55 (setting [6]), 64 (64) μg/mL; in test [1] (setting [6]) it was 1024 (64) μg/mL. The “Minimum Inhibitory Concentration of Meropenem” value with A. baumannii (Ab) AR# 70 (setting [7]) is reported as 2 (7) μg/mL; in test [2] (setting [6]) it was 64 (64) μg/mL; in the test on A. baumannii (Ab) AR# 63 (setting [8]), 8 (30) μg/mL; in the test with A. baumannii (Ab) AR# 45 (setting [5]) it was 1.5 (15) μg/mL; in the test on A. baumannii (Ab) AR# 88 (setting [5]) it was 128 (15) μg/mL; in the test on A. baumannii (Ab) AR# 56 (setting [5]), 8 (15) μg/mL. The “Minimum Inhibitory Concentration of Meropenem” value is given as 256 (32) μg/mL in test [3] (setting [9]); 4 (30) μg/mL in the test with A. baumannii (Ab) AR# 36 (setting [8]); 32 (64) μg/mL in test [4] (setting [6]); 128 (64) μg/mL with E. coli AR# 48 (setting [6]); 1.5 (15) μg/mL with A. baumannii (Ab) AR# 52 (setting [5]).

Regarding `Nc1ncc(-c2cccc(NC(=O)Nc3cc(Br)cc(Br)c3)c2)[nH]1` [Compound 7, 1-(3-(2-amino-1H-imidazol-5-yl)phenyl)-3-(3,5-dibromophenyl)urea], the “Minimum Inhibitory Concentration of Meropenem” value with A. baumannii (Ab) AR# 37 (setting [7]) is 32 (7) μg/mL; in the test on A. baumannii (Ab) AR# 35 (setting [8]) it was 32 (30) μg/mL; with A. baumannii (Ab) AR# 33 (setting [5]), 16 (15) μg/mL; in the test with A. baumannii (Ab) AR# 83 (setting [5]), 24 (15) μg/mL; in the test on E. coli AR# 55 (setting [5]), 64 (15) μg/mL; in test [1] (setting [5]), 64 (15) μg/mL. In addition, the “Minimum Inhibitory Concentration of Meropenem” value in the test on A. baumannii (Ab) AR# 70 (setting [10]) is reported as 4 (2) μg/mL; in [2] (setting [7]), 64 (7) μg/mL; in the test on A. baumannii (Ab) AR# 63 (setting [11]), 32 (4) μg/mL; in the test on A. baumannii (Ab) AR# 45 (setting [5]), 1 (15) μg/mL; in the test with A. baumannii (Ab) AR# 88 (setting [5]), 64 (15) μg/mL; in the test with A. baumannii (Ab) AR# 56 (setting [5]), 8 (15) μg/mL. Further, the “Minimum Inhibitory Concentration of Meropenem” value in [3] (setting [7]) is 128 (7) μg/mL; with A. baumannii (Ab) AR# 36 (setting [7]), 8 (7) μg/mL; in test [4] (setting [5]), 8 (15) μg/mL; in the test with E. coli AR# 48 (setting [5]), 64 (15) μg/mL; in the test with A. baumannii (Ab) AR# 52 (setting [11]), 2 (4) μg/mL.

For `Cc1nc(N)[nH]c1-c1cccc(NC(=O)Nc2ccc(C(F)(F)F)c(Cl)c2)c1` [Compound 68, 1-(3-(2-amino-4-methyl-1H-imidazol-5-yl)phenyl)-3-(3-chloro-4-(trifluoromethyl)phenyl)urea], the “Minimum Inhibitory Concentration of Meropenem” value in the test on A. baumannii (Ab) AR# 37 (setting [11]) is 64 (4) μg/mL; with A. baumannii (Ab) AR# 35 (setting [11]), 64 (4) μg/mL; in the test with A. baumannii (Ab) AR# 33 (setting [11]), 64 (4) μg/mL; in the test on A. baumannii (Ab) AR# 83 (setting [11]), 64 (4) μg/mL; in the test on E. coli AR# 55 (setting [11]) it was 64 (4) μg/mL; in [1] (setting [7]) it was 64 (7) μg/mL. For the same molecule, the “Minimum Inhibitory Concentration of Meropenem” value is reported as 1 (4) μg/mL in the test with A. baumannii (Ab) AR# 70 (setting [11]); 32 (7) μg/mL in test [2] (setting [7]); 128 (2) μg/mL in the test with A. baumannii (Ab) AR# 63 (setting [10]); 3 (4) μg/mL with A. baumannii (Ab) AR# 45 (setting [11]); 64 (4) μg/mL with A. baumannii (Ab) AR# 88 (setting [11]); 4 (4) μg/mL in the test with A. baumannii (Ab) AR# 56 (setting [11]). The “Minimum Inhibitory Concentration of Meropenem” value was 128 (7) μg/mL in test [3] (setting [7]); 48 (4) μg/mL with A. baumannii (Ab) AR# 36 (setting [11]); 64 (4) μg/mL in [4] (setting [11]); 128 (4) μg/mL with E. coli AR# 48 (setting [11]); 4 (4) μg/mL in the test with A. baumannii (Ab) AR# 52 (setting [11]).

`Nc1ncc(-c2cccc(NC(=O)Nc3cccc(-c4cnc(N)[nH]4)c3)c2)[nH]1` [Compound 92, 1,3-bis(3-(2-amino-1H-imidazol-5-yl)phenyl)urea]: the “Minimum Inhibitory Concentration of Meropenem” value in the test on A. baumannii (Ab) AR# 37 (setting [5]) is recorded as 32 (15) μg/mL; with A. baumannii (Ab) AR# 35 (setting [8]), 8 (30) μg/mL; with A. baumannii (Ab) AR# 33 (setting [5]) it was 12 (15) μg/mL; with A. baumannii (Ab) AR# 83 (setting [5]) it was 64 (15) μg/mL; with E. coli AR# 55 (setting [5]) it was 128 (15) μg/mL; in test [1] (setting [12]) it was 256 (60) μg/mL. In addition, the “Minimum Inhibitory Concentration of Meropenem” value is on record as 4 (2) μg/mL with A. baumannii (Ab) AR# 70 (setting [10]); 64 (60) μg/mL in test [2] (setting [12]); 8 (7) μg/mL with A. baumannii (Ab) AR# 63 (setting [7]); 2 (7) μg/mL with A. baumannii (Ab) AR# 45 (setting [7]); 64 (15) μg/mL with A. baumannii (Ab) AR# 88 (setting [5]); 8 (15) μg/mL in the test with A. baumannii (Ab) AR# 56 (setting [5]). The “Minimum Inhibitory Concentration of Meropenem” value in test [3] (setting [8]) is 64 (30) μg/mL; with A. baumannii (Ab) AR# 36 (setting [5]), 4 (15) μg/mL; in [4] (setting [12]), 64 (60) μg/mL; in the test with E. coli AR# 48 (setting [7]), 256 (7) μg/mL; in the test on A. baumannii (Ab) AR# 52 (setting [10]), 2 (2) μg/mL.

`Nc1ncc(-c2ccc(NC(=O)Nc3ccc(-c4cnc(N)[nH]4)cc3)cc2)[nH]1` [Compound 93, 1,3-bis(4-(2-amino-1H-imidazol-5-yl)phenyl)urea]: the “Minimum Inhibitory Concentration of Meropenem” value in the test with A. baumannii (Ab) AR# 37 (setting [7]) is on record as 64 (7) μg/mL; in the test on A. baumannii (Ab) AR# 35 (setting [5]), 32 (15) μg/mL; in the test on A. baumannii (Ab) AR# 33 (setting [7]), 64 (7) μg/mL; in the test on A. baumannii (Ab) AR# 83 (setting [5]) it was 64 (15) μg/mL; in the test with E. coli AR# 55 (setting [13]), 128 (16) μg/mL; in test [1] (setting [6]) it was 1024 (64) μg/mL. In addition, the “Minimum Inhibitory Concentration of Meropenem” value in the test on A. baumannii (Ab) AR# 70 (setting [7]) is listed as 1 (7) μg/mL; in [2] (setting [9]) it was 32 (32) μg/mL; in the test on A. baumannii (Ab) AR# 63 (setting [5]), 8 (15) μg/mL; with A. baumannii (Ab) AR# 45 (setting [7]), 2 (7) μg/mL; in the test on A. baumannii (Ab) AR# 88 (setting [7]), 64 (7) μg/mL; with A. baumannii (Ab) AR# 56 (setting [5]) it was 16 (15) μg/mL. Further, the “Minimum Inhibitory Concentration of Meropenem” value is 32 (32) μg/mL in [3] (setting [9]); 16 (15) μg/mL in the test on A. baumannii (Ab) AR# 36 (setting [5]); 8 (64) μg/mL in test [4] (setting [6]); 16 (32) μg/mL in the test on E. coli AR# 48 (setting [9]); 3 (4) μg/mL in the test with A. baumannii (Ab) AR# 52 (setting [11]).

In the case of `Nc1ncc(-c2ccc(NC(=O)Nc3ccc4c(c3)-c3[nH]c(N)nc3CC4)cc2)[nH]1` [Compound 97, 1-(4-(2-amino-1H-imidazol-5-yl)phenyl)-3-(2-amino-4,5-dihydro-1H-naphtho[1,2-d]imidazol-8-yl)urea], the “Minimum Inhibitory Concentration of Meropenem” value in the test on A. baumannii (Ab) AR# 37 (setting [14]) was 32 (8) μg/mL; in the test with A. baumannii (Ab) AR# 35 (setting [14]), 2 (8) μg/mL; in the test with A. baumannii (Ab) AR# 33 (setting [13]), 4 (16) μg/mL; in the test with A. baumannii (Ab) AR# 83 (setting [14]), 16 (8) μg/mL; with E. coli AR# 55 (setting [9]), 256 (32) μg/mL; in test [1] (setting [6]) it was 1024 (64) μg/mL. Moreover, the “Minimum Inhibitory Concentration of Meropenem” value with A. baumannii (Ab) AR# 70 (setting [14]) is on record as 0.5 (8) μg/mL; in test [2] (setting [13]), 32 (16) μg/mL; with A. baumannii (Ab) AR# 63 (setting [14]) it was 8 (8) μg/mL; with A. baumannii (Ab) AR# 45 (setting [14]), 1 (8) μg/mL; with A. baumannii (Ab) AR# 88 (setting [13]), 32 (16) μg/mL; in the test with A. baumannii (Ab) AR# 56 (setting [14]), 2 (8) μg/mL. Further, the “Minimum Inhibitory Concentration of Meropenem” value was 64 (32) μg/mL in [3] (setting [9]); 1 (8) μg/mL in the test on A. baumannii (Ab) AR# 36 (setting [14]); 16 (64) μg/mL in test [4] (setting [6]); 128 (16) μg/mL in the test on E. coli AR# 48 (setting [13]); 2 (2) μg/mL in the test with A. baumannii (Ab) AR# 52 (setting [10]).
